Laboratory results taken from patent US9517278B2, “Compound and photoacoustic imaging contrast medium containing the compound” (CANON KABUSHIKI KAISHA, priority 2012, dated 2016).

Columns and labels:
colon 26 cell line = assay: Tumor accumulation evaluated by photoacoustic imaging; type: in vivo; settings: colon 26 tumor-bearing mouse, tail vein, 32 nmol as dye, 797 nm
Method: Photoacoustic signals were measured before a prepared compound was administered and at any given timing after administration by using the commercially available photoacoustic imaging apparatus (Nexus128, produced by Endra Inc.), so that three-dimensional reconfiguration data were obtained respectively. The photoacoustic intensity in a region of interest (ROI) was measured on the basis of the resulting three-dimensional reconfiguration data.
In the example according to the present invention, the amount of migration of the compound to a tumor mass was evaluated using a tumor-bearing model mouse. […] The fluorescent imaging was performed using IVIS (registered trademark) Imaging System and fluorescent intensity of a region of interest (ROI) of the tumor portion was measured.
In order to evaluate the tumor accumulation of the compound, a contrast medium was administered to a tail vein of a tumor-bearing mouse which had been transplanted a colon 26 cell line. […] Then, tumor accumulation 1 day after administration of the contrast medium into the tumor-bearing mouse was evaluated by photoacoustic imaging and fluorescence. […] Subsequently, the relative photoacoustic signal intensity 1 day after administration relative to before administration was calculated. The amount of accumulation into a tumor of the mouse was evaluated using fluorescence, as described below. […]

[1] = in vivo; cited from earlier work
[2] = Evaluation of retentivity of compound in blood (fluorescent intensity of blood); type: in vivo, nude mouse
Method: In order to examine the retentivity of the compound in blood, various compounds were administered to veins of nude mouse tails and the amounts of compounds remaining in blood were evaluated. […] The method for producing the compound was as described in Example 1. In Table 4, k represents 1,000. For example, 5 k represents 5,000.
The retentivity of the compound in blood was evaluated as described below. Blood samples were taken from a mouse 1 hour, 3 hours, 1 day, 2 days, and 1 week after administration, and the fluorescent intensity of the blood was measured using IVIS (registered trademark) Imaging System 200 Series (produced by Caliper Life Science Inc.). The amount of administration to the mouse was 0.5 mg/kg in terms of the amount of dye. […] It is considered that access of serum protein to the near-infrared organic dye was limited by bonding the branched chain PEG to the near-infrared organic dye, accumulation into a liver was reduced and, as a result, the retentivity in blood was acquired.

[3] = rat, ICG administered to the blood alone; cited from earlier work
[4] = Tumor accumulation evaluated by fluorescence of tumor homogenate; type: in vivo; settings: intravenous, 32 nmol in terms of the amount of dye, colon 26 tumor-bearing mouse, tail vein, 32 nmol as dye, 24 hours after administration
Method: The tumor accumulation was evaluated by an intraveneous injection of 100 microliters (13 nmol in terms of ICG) of various ICG-PEG aqueous solution into tumor-bearing mouse models, in which various cells were subcutaneously transplanted into BALB/c Slc-nu/nu mice. The mice were euthanized with a carbon dioxide gas 24 hours after the administration. Subsequently, each cancer tissue was enucleated. The cancer tissue was transferred to a plastic tube, 1% Triton-X100 aqueous solution 1.25 times the cancer tissue in weight was added, and a homogenate was produced using a plastic pestle. […] The amount of dye in the cancer tissue (% ID/g) was quantified by using IVIS (registered trademark) Imaging System 200 Series (produced by Caliper Life Science Inc.) and measuring the fluorescent intensity of the solution of the dye extracted from the tumor tissue and the standard solution for calibration in the state of the plastic tube.
In order to evaluate the tumor accumulation of the compound, a contrast medium was administered to a tail vein of a tumor-bearing mouse which had been transplanted a colon 26 cell line. […] Then, tumor accumulation 1 day after administration of the contrast medium into the tumor-bearing mouse was evaluated by photoacoustic imaging and fluorescence. […] The amount of accumulation into a tumor of the mouse was evaluated using fluorescence, as described below. […]

[5] = nude mouse, tail vein, 0.5 mg/kg as dye, ICG 1 day after administration = 1

In the case of `CC1(C)C(/C=C/C=C/C=C/C=C2/N(CCCCS(=O)(=O)[O-])c3ccc4ccccc4c3C2(C)C)=[N+](CCCCS(=O)(=O)[O-])c2ccc3ccccc3c21.[Na+]` [ICG, Indocyanine Green], the “Relative photoacoustic intensity (1 day after administration)” value (colon 26 cell line) is listed as 1, the Half-life in blood [1] is listed as “about several minutes” and the Retentivity in blood ([2]; in words) is listed as “disappeared from the blood promptly”. The “Relative concentration in blood, 1 week after” value [2, 5] was 0.72, the “Relative concentration in blood, 1 hour after” value [2, 5] was 36.7 and the “Relative concentration in blood, 3 hours after” value [2, 5] was 19. For the same molecule, the “Relative concentration in blood, 2 days after” value [2, 5] was 0.89, the “Relative concentration in blood, 1 day after” value ([2]; nude mouse, tail vein, 0.5 mg/kg as dye, ICG 1 day after administration = 1 (Table 6)) was 1 and the “Relative concentration in blood (1 day after administration)” value ([2]; nude mouse, tail vein, 0.5 mg/kg as dye, concentration of ICG in blood 1 day after administration = 1 (Table 5)) was 1. For the same molecule, the “Time after administration until photoacoustic signal intensity is reduced to the level of the blood” value [3] was “several tens of minutes” and the tissue uptake at 24 h [4] was 0.1 %ID/g.
